# Reference: US11377442B2, “Small molecule agonists and antagonists of NR2F6 activity” (ZANDER THERAPEUTICS, INC., priority 2016, dated 2022)
# Biological target: T1, NR2F6 (Homo sapiens, UniProt P10588)
# T1 construct: expressed in transfected cells; also transient transfection
# T1 sequence (P10588 1-404): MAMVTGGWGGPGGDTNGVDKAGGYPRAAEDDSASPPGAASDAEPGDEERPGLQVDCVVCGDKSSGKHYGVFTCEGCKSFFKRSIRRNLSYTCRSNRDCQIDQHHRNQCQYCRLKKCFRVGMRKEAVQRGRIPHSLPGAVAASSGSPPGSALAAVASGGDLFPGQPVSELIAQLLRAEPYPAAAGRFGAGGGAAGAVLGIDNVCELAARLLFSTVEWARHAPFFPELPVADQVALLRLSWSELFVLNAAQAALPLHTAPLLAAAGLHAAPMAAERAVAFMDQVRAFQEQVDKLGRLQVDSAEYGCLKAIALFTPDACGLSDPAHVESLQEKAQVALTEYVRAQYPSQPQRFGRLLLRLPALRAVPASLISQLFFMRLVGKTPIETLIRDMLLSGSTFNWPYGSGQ
# Experiment: NR2F6 agonist screening, Firefly signal cmpd/DMSO
# Format: cell-based
# Details: for Firefly/Renilla (NR2F6 stable, clone F4): ratio Firefly/Renilla; for Firefly, NR2F6 stable (clone F4)/pGL4: ratio of Firefly in NR2F6 stable clone F4 to pGL4
# [1] = C11 analogs follow set (Tables 2-10)
Compound,"Firefly, cmpd/DMSO repeat 1 [1]","Firefly, cmpd/DMSO repeat 2 [1]","Firefly/Renilla (NR2F6 stable, clone F4) (Table 12)","Firefly, NR2F6 stable (clone F4)/pGL4 (Table 12)","Firefly, cmpd/DMSO repeat 1 (Table 12)","Firefly, cmpd/DMSO repeat 2 (Table 12)","Firefly/Renilla (NR2F6 stable, clone F4) (Table 13)","Firefly, NR2F6 stable (clone F4)/pGL4 (Table 13)","Firefly, cmpd/DMSO repeat 1 (Table 13)","Firefly, cmpd/DMSO repeat 2 (Table 13)"
O=C(NCCc1ccccc1)c1ccc2oc(=O)c(S(=O)(=O)c3ccccc3)cc2c1 [Compound C111],29.8,35.9,,,,,1.1,8.7,29.8,35.9
Cc1ccc(S(=O)(=O)c2cc3cc(C(=O)NCCc4ccccc4)ccc3oc2=O)cc1 [Compound C112],11.7,10.1,2.0,4.1,11.7,10.1,,,,
O=C(NCCc1ccccc1)c1ccc2oc(=O)c(S(=O)(=O)c3ccc(F)cc3)cc2c1 [Compound C113],5.8,7.0,,,,,,,,
O=C(NCc1ccccc1)c1ccc2oc(=O)c(S(=O)(=O)c3ccccc3)cc2c1 [Compound C115],6.8,21.9,,,,,,,,
Cc1ccc(CNC(=O)c2ccc3oc(=O)c(S(=O)(=O)c4ccc(Cl)cc4)cc3c2)cc1 [Compound C116],8.6,9.0,,,,,,,,
COc1ccc(CNC(=O)c2ccc3oc(=O)c(S(=O)(=O)c4ccc(F)cc4)cc3c2)cc1 [Compound C117],17.3,24.1,,,,,,,,
O=C(NCc1ccc(F)cc1)c1ccc2oc(=O)c(S(=O)(=O)c3ccc(F)cc3)cc2c1 [Compound C118],13.5,17.1,,,,,1.1,5.9,13.5,17.1
O=C(NCc1ccc(F)cc1)c1ccc2oc(=O)c(S(=O)(=O)c3ccc(Cl)cc3)cc2c1 [Compound C119],18.4,16.2,,,,,,,,
O=C(Nc1ccccc1C(F)(F)F)c1ccc2oc(=O)c(S(=O)(=O)c3ccc(F)cc3)cc2c1 [Compound C120],4.5,6.3,,,,,,,,
COc1ccc(NC(=O)c2ccc3oc(=O)c(S(=O)(=O)c4ccc(C)cc4)cc3c2)cc1OC [Compound C121],9.0,21.5,,,,,,,,
COc1ccc(NC(=O)c2ccc3oc(=O)c(S(=O)(=O)c4ccc(Cl)cc4)cc3c2)cc1OC [Compound C122],4.4,5.7,,,,,,,,
COc1ccccc1NC(=O)c1ccc2oc(=O)c(S(=O)(=O)c3ccccc3)cc2c1 [Compound C123],17.7,16.8,,,,,,,,
COc1cccc(NC(=O)c2ccc3oc(=O)c(S(=O)(=O)c4ccc(C)cc4)cc3c2)c1 [Compound C126],45.1,44.8,,,,,1.0,9.9,45.1,44.8
COc1cccc(NC(=O)c2ccc3oc(=O)c(S(=O)(=O)c4ccc(F)cc4)cc3c2)c1 [Compound C127],36.7,56.2,,,,,1.1,5.7,36.7,56.2
O=C(Nc1cccc(Cl)c1)c1ccc2oc(=O)c(S(=O)(=O)c3ccc(F)cc3)cc2c1 [Compound C128],1.7,5.2,,,,,,,,
O=C(Nc1ccc(Cl)cc1)c1ccc2oc(=O)c(S(=O)(=O)c3ccc(F)cc3)cc2c1 [Compound C129],0.9,1.2,,,,,,,,
COc1cc(NC(=O)c2ccc3oc(=O)c(S(=O)(=O)c4ccccc4)cc3c2)cc(OC)c1 [Compound C130],2.3,3.4,,,,,,,,
COc1cc(NC(=O)c2ccc3oc(=O)c(S(=O)(=O)c4ccc(C)cc4)cc3c2)cc(OC)c1 [Compound C131],9.5,15.3,,,,,,,,
COc1cc(NC(=O)c2ccc3oc(=O)c(S(=O)(=O)c4ccc(F)cc4)cc3c2)cc(OC)c1 [Compound C132],1.4,1.4,,,,,,,,
COc1cc(NC(=O)c2ccc3oc(=O)c(S(=O)(=O)c4ccc(Cl)cc4)cc3c2)cc(OC)c1 [Compound C133],2.1,4.3,,,,,,,,

# The remaining lines, values ahead:
"Firefly, cmpd/DMSO repeat 1 [1]","Firefly, cmpd/DMSO repeat 2 [1]","Firefly/Renilla (NR2F6 stable, clone F4) (Table 12)","Firefly, NR2F6 stable (clone F4)/pGL4 (Table 12)","Firefly, cmpd/DMSO repeat 1 (Table 12)","Firefly, cmpd/DMSO repeat 2 (Table 12)","Firefly/Renilla (NR2F6 stable, clone F4) (Table 13)","Firefly, NR2F6 stable (clone F4)/pGL4 (Table 13)","Firefly, cmpd/DMSO repeat 1 (Table 13)","Firefly, cmpd/DMSO repeat 2 (Table 13)",Compound
20.0,16.7,2.6,6.6,20.0,16.7,,,,,COC(=O)c1ccc2oc(=O)c(S(=O)(=O)c3ccc(OC)cc3)cc2c1 [Compound C12]
14.0,12.9,1.8,4.2,14.0,12.9,,,,,COC(=O)c1ccc2oc(=O)c(S(=O)(=O)c3ccc(C)cc3)cc2c1 [Compound C13]
22.3,20.0,,,,,1.5,7.6,22.3,20.0,COC(=O)c1ccc2oc(=O)c(S(=O)(=O)c3ccc(F)cc3)cc2c1 [Compound C14]
0.9,1.7,,,,,,,,,COC(=O)c1ccc2oc(=O)c(S(=O)(=O)c3ccc(Cl)cc3)cc2c1 [Compound C15]
2.0,1.9,,,,,,,,,Cc1ccc(S(=O)(=O)c2cc3ccccc3oc2=O)cc1 [Compound C100]
4.5,4.7,2.4,3.6,4.5,4.7,,,,,COc1ccc(S(=O)(=O)c2cc3ccccc3oc2=O)cc1 [Compound C101]
13.0,15.3,2.4,5.9,13.0,15.3,,,,,O=c1oc2ccccc2cc1S(=O)(=O)c1ccc(Br)cc1 [Compound C102]
2.8,1.4,,,,,,,,,CC(C)(C)c1ccc(S(=O)(=O)c2cc3ccccc3oc2=O)cc1 [Compound C103]
3.1,4.4,,,,,,,,,Cc1ccc(S(=O)(=O)c2cc3ccccc3oc2=O)cc1C [Compound C104]
5.7,4.8,,,,,2.6,3.1,5.7,4.8,O=c1oc2ccccc2cc1S(=O)(=O)c1ccc(Cl)cc1 [Compound C105]
1.4,1.3,,,,,,,,,O=c1oc2ccccc2cc1S(=O)(=O)c1ccc(Cl)c(Cl)c1 [Compound C106]
11.0,11.0,,,,,1.4,5.8,11.0,11.0,O=c1oc2ccccc2cc1S(=O)(=O)c1ccc(F)c(Cl)c1 [Compound C107]
7.9,7.3,2.6,5.5,7.9,7.3,,,,,O=c1oc2ccccc2cc1S(=O)(=O)c1ccccc1F [Compound C108]
9.2,10.3,,,,,2.9,2.9,9.2,10.3,O=c1oc2ccccc2cc1S(=O)(=O)c1cccc(Cl)c1 [Compound C109]
7.6,7.2,3.3,3.9,7.6,7.2,,,,,Cc1cc(S(=O)(=O)c2cc3ccccc3oc2=O)ccc1F [Compound C110]
4.5,4.7,,,,,,,,,O=C(NCCc1ccccc1)c1ccc2oc(=O)c(S(=O)(=O)c3ccc(Cl)cc3)cc2c1 [Compound C114]
25.5,29.8,,,,,,,,,COc1ccccc1NC(=O)c1ccc2oc(=O)c(S(=O)(=O)c3ccc(F)cc3)cc2c1 [Compound C124]
28.0,24.5,,,,,,,,,COc1ccccc1NC(=O)c1ccc2oc(=O)c(S(=O)(=O)c3ccc(Cl)cc3)cc2c1 [Compound C125]
